Laboratory results as given in article PMC8330742, “New benzothieno[2,3-c]pyridines as non-steroidal CYP17 inhibitors: design, synthesis, anticancer screening, apoptosis induction, and in silico ADME profile studies” (Journal of Enzyme Inhibition and Medicinal Chemistry, 2021).

What was measured:
[1] = tested on: UACC-62; assay: NCI-60 SRB screen; format: cell-based, human; details: Homo sapiens; UACC-62; single dose 10^−5 M; read-out: Growth inhibition (%)
[2] = tested on: RXF 393; assay: NCI-60 SRB screen; format: cell-based, human; details: Homo sapiens; RXF 393; single dose 10^−5 M; read-out: Growth inhibition (%)
[3] = tested on: HT-29; assay: NCI-60 SRB screen; format: cell-based; details: Homo sapiens; HT-29; single dose 10^−5 M; read-out: Growth inhibition (%)
[4] = tested on: HCC-2998; assay: NCI-60 SRB screen; format: cell-based, human; details: Homo sapiens; HCC-2998; single dose 10^−5 M; read-out: Growth inhibition (%)
[5] = tested on: COLO 205; assay: NCI-60 SRB screen; format: cell-based, human; details: Homo sapiens; COLO 205; single dose 10^−5 M; read-out: Growth inhibition (%)
[6] = tested on: LOX IMVI; assay: NCI-60 SRB screen; format: cell-based, human; details: Homo sapiens, single dose 10^−5 M, read-out: Growth inhibition (%)
[7] = tested on: NCI-H522; assay: NCI-60 SRB screen; format: cell-based, human; details: Homo sapiens; NCI-H522; single dose 10^−5 M; read-out: Growth inhibition (%)
[8] = tested on: SW-620; assay: NCI-60 SRB screen; format: cell-based; details: Homo sapiens; SW-620; single dose 10^−5 M; read-out: Growth inhibition (%)
[9] = tested on: EKVX; assay: NCI-60 SRB screen; format: cell-based, human; details: Homo sapiens, single dose 10^−5 M, read-out: Growth inhibition (%)
[10] = tested on: ACHN; assay: NCI-60 SRB screen; format: cell-based; details: Homo sapiens, single dose 10^−5 M, read-out: Growth inhibition (%)
[11] = tested on: A549/ATCC; assay: NCI-60 SRB screen; format: cell-based, human; details: Homo sapiens, single dose 10^−5 M, read-out: Growth inhibition (%)
[12] = tested on: SF-268; assay: NCI-60 SRB screen; format: cell-based, human; details: Homo sapiens; SF-268; single dose 10^−5 M; read-out: Growth inhibition (%)
[13] = tested on: MALME-3M; assay: NCI-60 SRB screen; format: cell-based, human; details: Homo sapiens, single dose 10^−5 M, read-out: Growth inhibition (%)
[14] = tested on: CCRF-CEM; assay: NCI-60 SRB screen; format: cell-based; details: Homo sapiens, single dose 10^−5 M, read-out: Growth inhibition (%)
[15] = tested on: SK-MEL-28; assay: NCI-60 SRB screen; format: cell-based; details: Homo sapiens; SK-MEL-28; single dose 10^−5 M; read-out: Growth inhibition (%)
[16] = tested on: UACC-257; assay: NCI-60 SRB screen; format: cell-based, human; details: Homo sapiens, UACC-257; UACC-275 (so in the source); single dose 10^−5 M; read-out: Growth inhibition (%)
[17] = tested on: IGROV1; assay: NCI-60 SRB screen; format: cell-based, human; details: Homo sapiens, IGROV-1; IGROV1; single dose 10^−5 M; read-out: Growth inhibition (%)
[18] = tested on: TK-10; assay: NCI-60 SRB screen; format: cell-based, human; details: Homo sapiens; TK-10; single dose 10^−5 M; read-out: Growth inhibition (%)
[19] = tested on: NCI/ADR-RES; assay: NCI-60 SRB screen; format: cell-based, human; details: Homo sapiens, single dose 10^−5 M, read-out: Growth inhibition (%)
[20] = tested on: HCT-116; assay: NCI-60 SRB screen; format: cell-based, human; details: Homo sapiens; HCT-116; single dose 10^−5 M; read-out: Growth inhibition (%)
[21] = tested on: NCI-H322M; assay: NCI-60 SRB screen; format: cell-based, human; details: Homo sapiens, single dose 10^−5 M, read-out: Growth inhibition (%)
[22] = tested on: SF-295; assay: NCI-60 SRB screen; format: cell-based, human; details: Homo sapiens; SF-295; single dose 10^−5 M; read-out: Growth inhibition (%)
[23] = tested on: HOP-62; assay: NCI-60 SRB screen; format: cell-based, human; details: Homo sapiens; HOP-62; single dose 10^−5 M; read-out: Growth inhibition (%)
[24] = tested on: M14; assay: NCI-60 SRB screen; format: cell-based, human; details: Homo sapiens; M14; single dose 10^−5 M; read-out: Growth inhibition (%)
[25] = tested on: OVCAR-8; assay: NCI-60 SRB screen; format: cell-based, human; details: Homo sapiens; OVCAR-8; single dose 10^−5 M; read-out: Growth inhibition (%)
[26] = tested on: OVCAR-3; assay: NCI-60 SRB screen; format: cell-based, human; details: Homo sapiens; OVCAR-3; single dose 10^−5 M; read-out: Growth inhibition (%)
[27] = tested on: NCI-H460; assay: NCI-60 SRB screen; format: cell-based, human; details: Homo sapiens; NCI-H460; single dose 10^−5 M; read-out: Growth inhibition (%)
[28] = tested on: OVCAR-4; assay: NCI-60 SRB screen; format: cell-based, human; details: Homo sapiens; OVCAR-4; single dose 10^−5 M; read-out: Growth inhibition (%)
[29] = tested on: CAKI-1; assay: NCI-60 SRB screen; format: cell-based, human; details: Homo sapiens; CAKI-1; single dose 10^−5 M; read-out: Growth inhibition (%)
[30] = tested on: HCT-15; assay: NCI-60 SRB screen; format: cell-based, human; details: Homo sapiens; HCT-15; single dose 10^−5 M; read-out: Growth inhibition (%)
[31] = tested on: SK-MEL-5; assay: NCI-60 SRB screen; format: cell-based, human; details: Homo sapiens; SK-MEL-5; single dose 10^−5 M; read-out: Growth inhibition (%)
[32] = tested on: 786-0; assay: NCI-60 SRB screen; format: cell-based; details: Homo sapiens; 786-0; single dose 10^−5 M; read-out: Growth inhibition (%)
[33] = tested on: HL-60(TB); assay: NCI-60 SRB screen; format: cell-based, human; details: Homo sapiens; HL-60 (TB); single dose 10^−5 M; read-out: Growth inhibition (%)
[34] = tested on: MOLT-4; assay: NCI-60 SRB screen; format: cell-based; details: Homo sapiens; MOLT-4; single dose 10^−5 M; read-out: Growth inhibition (%)
[35] = tested on: UO-31; assay: NCI-60 SRB screen; format: cell-based, human; details: Homo sapiens; UO-31; single dose 10^−5 M; read-out: Growth inhibition (%)
[36] = tested on: NCI-H23; assay: NCI-60 SRB screen; format: cell-based, human; details: Homo sapiens; NCI-H23; single dose 10^−5 M; read-out: Growth inhibition (%)
[37] = tested on: SN12C; assay: NCI-60 SRB screen; format: cell-based, human; details: Homo sapiens, SN12C; SN 12 C; single dose 10^−5 M; read-out: Growth inhibition (%)
[38] = tested on: SK-OV-3; assay: NCI-60 SRB screen; format: cell-based, human; details: Homo sapiens; SK-OV-3; single dose 10^−5 M; read-out: Growth inhibition (%)
[39] = tested on: NCI-H226; assay: NCI-60 SRB screen; format: cell-based, human; details: Homo sapiens; NCI-H226; single dose 10^−5 M; read-out: Growth inhibition (%)
[40] = tested on: HOP-92; assay: NCI-60 SRB screen; format: cell-based, human; details: Homo sapiens; HOP-92; single dose 10^−5 M; read-out: Growth inhibition (%)
[41] = tested on: K-562; assay: NCI-60 SRB screen; format: cell-based, human; details: Homo sapiens, K562; K-562; single dose 10^−5 M; read-out: Growth inhibition (%)
[42] = tested on: SK-MEL-2; assay: NCI-60 SRB screen; format: cell-based, human; details: Homo sapiens; SK-MEL-2; single dose 10^−5 M; read-out: Growth inhibition (%)
[43] = tested on: KM12; assay: NCI-60 SRB screen; format: cell-based, human; details: Homo sapiens; KM12; single dose 10^−5 M; read-out: Growth inhibition (%)
[44] = tested on: panel of 60 cancer cell lines; assay: NCI-60 SRB screen, mean or range over the panel; format: cell-based, human; details: Homo sapiens; mean over the cell lines; single dose 10^−5 M; read-out: Mean growth inhibition (%)

Molecule COc1ccc(C2NC(=O)C(C#N)c3c2sc2c(F)cccc32)c(OC)c1 (centres unmarked) [Compound 5a, 1-(2,4-Dimethoxyphenyl)-4-cyano-8-fluoro-1,2-dihydro[1]benzothieno [2,3-c]pyridin-3(4H)-one] has an inhibition at 10 µM [1] of 58.8%, an inhibition at 10 µM [2] of 90.3% and an inhibition at 10 µM [3] of 36%. The inhibition at 10 µM [4] was 11.7%, the inhibition at 10 µM [5] was 11.7% and the inhibition at 10 µM [6] was 60.3%. The inhibition at 10 µM [7] was 92%, the inhibition at 10 µM [8] was 68.7% and the inhibition at 10 µM [9] was 20.7%. The inhibition at 10 µM [10] was 62.5%, the inhibition at 10 µM [11] was 41.5% and the inhibition at 10 µM [12] was 48.9%. It also gave an inhibition at 10 µM [13] of 60.3%, an inhibition at 10 µM [14] of 28.1% and an inhibition at 10 µM [15] of 45.9%. For the same molecule, the inhibition at 10 µM [16] was 31.8%, the inhibition at 10 µM [17] was 48.2% and the inhibition at 10 µM [18] was 1.9%. For the same molecule, the inhibition at 10 µM [19] was 84.4%, the inhibition at 10 µM [20] was 77.2% and the inhibition at 10 µM [21] was 9.6%. The inhibition at 10 µM [22] was 72.4%, the inhibition at 10 µM [23] was 42.6% and the inhibition at 10 µM [24] was 62.2%. It also gave an inhibition at 10 µM [25] of 38.7%, an inhibition at 10 µM [26] of 86.3% and an inhibition at 10 µM [27] of 68.2%. It also gave an inhibition at 10 µM [28] of 46.3%, an inhibition at 10 µM [29] of 78.7% and an inhibition at 10 µM [30] of 63.6%. For the same molecule, the inhibition at 10 µM [31] was 18.2%, the inhibition at 10 µM [32] was 31.6% and the inhibition at 10 µM [33] was 43%. The inhibition at 10 µM [34] was 28.6%, the inhibition at 10 µM [35] was 66% and the inhibition at 10 µM [36] was 35.2%. The inhibition at 10 µM [37] was 26.3%, the inhibition at 10 µM [38] was 49.3% and the inhibition at 10 µM [39] was 37.8%. The inhibition at 10 µM [40] was 57.8%, the inhibition at 10 µM [41] was 76.1% and the inhibition at 10 µM [42] was 35.9%. It also gave an inhibition at 10 µM [43] of 69% and an inhibition at 10 µM [44] of 52.5%.
